By IC50 is commonly meant the concentration needed to halve the response being measured. The low end stands for greater potency in that assay, the high end for weaker potency in that assay.

In this assay the target is T1, Ubiquitin carboxyl-terminal hydrolase 30 (Homo sapiens, UniProt Q70CQ3).
T1 sequence (Q70CQ3 whole entry): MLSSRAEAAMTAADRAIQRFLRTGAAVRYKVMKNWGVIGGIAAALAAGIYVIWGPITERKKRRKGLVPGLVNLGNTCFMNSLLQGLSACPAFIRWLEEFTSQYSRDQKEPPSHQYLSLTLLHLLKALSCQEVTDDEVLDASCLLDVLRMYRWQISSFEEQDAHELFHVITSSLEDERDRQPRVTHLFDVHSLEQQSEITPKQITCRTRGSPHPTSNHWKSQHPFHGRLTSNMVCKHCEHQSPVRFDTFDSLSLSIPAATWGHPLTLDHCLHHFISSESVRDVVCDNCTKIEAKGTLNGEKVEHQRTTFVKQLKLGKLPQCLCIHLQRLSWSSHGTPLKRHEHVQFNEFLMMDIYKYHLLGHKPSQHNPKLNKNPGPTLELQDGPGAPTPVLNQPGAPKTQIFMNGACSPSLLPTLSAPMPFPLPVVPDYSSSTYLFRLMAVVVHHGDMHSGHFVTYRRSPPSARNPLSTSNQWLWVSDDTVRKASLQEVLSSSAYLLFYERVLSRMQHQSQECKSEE
As to the kind of experiment: In Vitro USP30 Biochemical Assay.

A value given as a limit tells only on which side of the number the result lay.

Method: In vitro biochemical assay to establish the potency of compounds for USP30 inhibition: a 384-well plate assay using a fluorophore tagged substrate of USP30 was used for in vitro screening of compounds. Each compound was tested at 10 different concentrations (0.5 to 10,000 nM) in duplicate wells. […] Data were analyzed using Graph Pad Prism software with a four-parameter (floating slope) fit to log concentration data to determine IC50s.

`CC(C)(C)NS(=O)(=O)c1ccc(NC(=O)[C@H]2CCCN2C(=O)c2ccc(F)cc2)cc1` [US20250162989, Compound I-51] had an IC50 greater than 10 µM.

For the origin of these results see BindingDB's records for patent US20250162989 (Vincere Biosciences, 2025).
